For three molecules, Ki results are on record in ChEMBL document CHEMBL5728519, “Compounds of formulas (VII), (VIII), (IX), (XI), (XII), (XIII), and (XIV) as muscarinic receptor 4(M4) antagonists for treating neurological diseases” (2021).

The term Ki denotes the dissociation constant of the complex between target and ligand, obtained from inhibition or displacement. A low value points to tighter binding.

In test [1] the target is T1, Muscarinic acetylcholine receptor M1 (Homo sapiens, UniProt P11229).
T1 sequence (P11229 whole entry): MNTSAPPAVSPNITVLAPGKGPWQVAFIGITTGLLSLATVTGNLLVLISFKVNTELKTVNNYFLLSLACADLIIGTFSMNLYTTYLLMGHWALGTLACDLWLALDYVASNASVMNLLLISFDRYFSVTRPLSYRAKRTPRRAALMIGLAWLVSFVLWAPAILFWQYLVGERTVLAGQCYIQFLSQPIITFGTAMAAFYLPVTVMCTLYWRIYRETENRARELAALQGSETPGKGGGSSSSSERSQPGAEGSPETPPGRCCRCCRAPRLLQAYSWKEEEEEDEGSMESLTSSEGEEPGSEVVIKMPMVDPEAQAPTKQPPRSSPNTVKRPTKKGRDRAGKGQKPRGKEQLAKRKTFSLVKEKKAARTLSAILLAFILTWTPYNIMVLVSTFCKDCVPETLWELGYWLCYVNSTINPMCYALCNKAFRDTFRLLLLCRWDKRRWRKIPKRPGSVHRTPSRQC
Description: (§1) Binding Assay: Binding affinity (Ki) of compounds was measured by inhibition of radioligand binding to membranes from CHO cells expressing human M1, M2, M3, M4 and M5 receptors. Membranes were prepared by nitrogen cavitation and differential centrifugation as previously described (Hoare et al., Mol. Pharmacol. 2003 March; 63(3): 751-65). The radioligand employed was tritiated N-methylscopolamine, used at a concentration of 1.5 nM. A dose-response of twelve concentrations of compound was used, […]. The assay buffer was 50 mM HEPES, 100 mM NaCl, 5 mM MgCl2, 1 mM ethylenediaminetetraacetic acid, pH-adjusted to pH 7.4.

For test [2], the target named is T2, Muscarinic acetylcholine receptor M4 (Homo sapiens, UniProt P08173).
T2 sequence (P08173 whole entry): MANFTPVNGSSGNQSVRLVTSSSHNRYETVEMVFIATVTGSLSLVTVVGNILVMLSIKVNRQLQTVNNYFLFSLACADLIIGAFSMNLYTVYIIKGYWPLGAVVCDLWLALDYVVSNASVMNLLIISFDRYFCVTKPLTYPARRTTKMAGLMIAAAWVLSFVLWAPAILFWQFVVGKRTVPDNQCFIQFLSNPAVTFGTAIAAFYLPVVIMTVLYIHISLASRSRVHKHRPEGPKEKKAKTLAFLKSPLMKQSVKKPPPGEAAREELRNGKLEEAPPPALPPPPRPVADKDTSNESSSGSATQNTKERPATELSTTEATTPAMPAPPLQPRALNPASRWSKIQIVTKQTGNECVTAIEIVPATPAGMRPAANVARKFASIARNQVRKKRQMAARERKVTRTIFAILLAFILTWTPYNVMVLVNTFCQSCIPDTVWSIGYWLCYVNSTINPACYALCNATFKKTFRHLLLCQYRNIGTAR
The description is as §1.

In test [1], `C[C@@H]1CN(c2ncc(C(F)(F)F)c(N)n2)CCN1C(=O)NCCC1CCN(Cc2ccccc2)CC1` gave a Ki of 10 to 100 nM.

As to `C[C@@H]1CN(c2ncc(C(F)(F)F)cn2)CCN1C(=O)NCCC1CCN(Cc2ccccc2)CC1`, the Ki in test [1] lay in the range of 100 to 1000 nM.

For `COc1ccc(N2CCN(C(=O)NCCC3CCN(Cc4ccccc4)CC3)[C@H](C)C2)cc1C#N`, the Ki in test [2] fell in the range of 10 to 100 nM.
